This test deals with P388 leukemia ip, CD2F1 mice, survival T/C. Kind of test: NCI In Vivo Anticancer Drug Screen. Data for tumor model P388 Leukemia (intraperitoneal) in CD2F1 (CDF1) mice. Conditions: endpoint: median survival time, higher = longer survival. In short, it runs like this: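 Mice carrying the transplanted tumor received test compound or vehicle. Survival was recorded in each group, and the value is the treated-group measurement divided by that of the vehicle-treated control group.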

Setting [1] is: dose: 50.0 mg/kg/injection, schedule: Q01DX005 (ip), vehicle: Klucel (hydroxypropylcellulose) (HPC).
[2] abbreviates: dose: 100.0 mg/kg/injection, schedule: Q01DX005 (ip), vehicle: Klucel (hydroxypropylcellulose) (HPC).
The mark [3] stands for this setting: dose: 200.0 mg/kg/injection, schedule: Q01DX005 (ip), vehicle: Klucel (hydroxypropylcellulose) (HPC).
[4] abbreviates: dose: 100.0 mg/kg/injection, schedule: Q04DX002 (ip), vehicle: saline with Tween-80.
Setting [5] is: dose: 200.0 mg/kg/injection, schedule: Q04DX002 (ip), vehicle: saline with Tween-80.
Setting [6] is: dose: 400.0 mg/kg/injection, schedule: Q04DX002 (ip), vehicle: saline with Tween-80.
The mark [7] stands for this setting: dose: 50.0 mg/kg/injection, schedule: Q01DX009 (ip), vehicle: saline.
The mark [8] stands for this setting: dose: 100.0 mg/kg/injection, schedule: Q01DX009 (ip), vehicle: saline.
Setting [9] is: dose: 200.0 mg/kg/injection, schedule: Q01DX009 (ip), vehicle: saline.
Where [10] appears, read: dose: 25.0 mg/kg/injection, schedule: Q01DX009 (ip), vehicle: saline with Tween-80.

This passage reports T/C results from PubChem BioAssay AID330 (DTP/NCI, 2004).

Several values for one entry are separate records, joined by “and”; a condition that tells them apart may be missing. Identical values can stand only once. Toxic doses and inconclusive results are not listed.

Take `CCOC(=O)ON(C)C(=O)OCC`: the T/C is, setting by setting: (dose: 50.0 mg/kg/injection, schedule: Q01DX005 (ip), vehicle: saline with Tween-80) 102 % of control; (dose: 100.0 mg/kg/injection, schedule: Q01DX005 (ip), vehicle: saline with Tween-80) 102 % of control; (dose: 200.0 mg/kg/injection, schedule: Q01DX005 (ip), vehicle: saline with Tween-80) 107 % of control; (dose: 400.0 mg/kg/injection, schedule: Q01DX005 (ip), vehicle: saline with Tween-80) 102 % of control.
Take `CN1CCC(CNc2ccccc2)CC1`: the T/C is 98 % of control (dose: 7.5 mg/kg/injection, schedule: Q01DX005 (ip), vehicle: saline) and 98 % of control (dose: 15.0 mg/kg/injection, schedule: Q01DX005 (ip), vehicle: saline).
As to `O=C1c2ccccc2C(=C(c2ccccc2)c2ccccc2)c2ccccc21`, the T/C runs as follows: under setting [1], 89 % of control; under setting [2], 88 % of control; under setting [3], 86 % of control.
Take `COc1cccc2c(NCCCN(C)CCCNc3c4ccccc4nc4c(OC)cccc34)c3ccccc3nc12`: the T/C was 120 % of control (dose: 1.25 mg/kg/injection, schedule: Q01DX009 (ip), vehicle: water); 124 % of control (dose: 2.5 mg/kg/injection, schedule: Q01DX009 (ip), vehicle: water); 163 % of control (dose: 10.0 mg/kg/injection, schedule: Q01DX009 (ip), vehicle: water).
With `Cc1ccc2nc(CC(=O)c3ccc(F)cc3)c(=O)[nH]c2c1`, the T/C reads like this: (dose: 60.0 mg/kg/injection, schedule: Q01DX005 (ip), vehicle: saline with Tween-80) 100 % of control; (dose: 120.0 mg/kg/injection, schedule: Q01DX005 (ip), vehicle: saline with Tween-80) 100 % of control; (dose: 240.0 mg/kg/injection, schedule: Q01DX005 (ip), vehicle: saline with Tween-80) 107 % of control.
As to `COc1ccc2c(c1)CCc1c(N)ncnc1-2`, the T/C under setting [4] was 104 % of control, the T/C under setting [5] is 106 % of control and the T/C under setting [6] was 107 % of control.
Consider `C=CC(C)NC(=S)NNC(=S)NC` (stereo unspecified), for which the T/C runs as follows: under setting [1], 101 % of control; under setting [2], 100 % of control; under setting [3], 101 % of control.
Regarding `CCn1c(C)nc2c(N)cc(C(F)(F)F)cc21` (tested in a mixture with another compound), the T/C is 95 % of control (dose: 30.0 mg/kg/injection, schedule: Q01DX005 (ip), vehicle: Klucel (hydroxypropylcellulose) (HPC)); 100 % of control (dose: 60.0 mg/kg/injection, schedule: Q01DX005 (ip), vehicle: Klucel (hydroxypropylcellulose) (HPC)); 99 % of control (dose: 120.0 mg/kg/injection, schedule: Q01DX005 (ip), vehicle: Klucel (hydroxypropylcellulose) (HPC)).
As to `Nc1ccc(/C=C/c2ccnc3ccccc23)c(N)c1`, the T/C (dose: 1.25 mg/kg/injection, schedule: Q01DX001 (ip), vehicle: Klucel (hydroxypropylcellulose) (HPC)) was 107 % of control; the T/C (dose: 2.5 mg/kg/injection, schedule: Q01DX001 (ip), vehicle: Klucel (hydroxypropylcellulose) (HPC)) was 108 % of control; the T/C (dose: 5.0 mg/kg/injection, schedule: Q01DX001 (ip), vehicle: Klucel (hydroxypropylcellulose) (HPC)) is 114 % of control; the T/C (dose: 10.0 mg/kg/injection, schedule: Q01DX001 (ip), vehicle: Klucel (hydroxypropylcellulose) (HPC)) is 107 % of control.
In the case of `COC(=O)c1nn(-c2ccccc2)c2c1C(=O)c1ccccc1C2=O`, the T/C was 97 % of control under setting [1], 92 % of control under setting [2] and 98 % of control under setting [3].
On the same counts, the results for `BrCCc1cc(Br)c(CCBr)cc1Br` are 97 % of control, 97 % of control and 107 % of control.
As for `CCN=C(C)C1=C(O)c2ccccc2C1=O`, the T/C runs as follows: under setting [4], 97 % of control; under setting [5], 98 % of control; under setting [6], 98 % of control.
For `C=CC(=O)NC1(c2ccccc2)CN2CCC1CC2` (stereo unspecified), the T/C (dose: 50.0 mg/kg/injection, schedule: Q01DX009 (ip), vehicle: Klucel (hydroxypropylcellulose) (HPC)) was 96 % of control.
Turning to `CC(C)(C)CC(C)(C)c1ccc(OCCOc2ccc(C(=O)O)cc2)cc1`, the T/C reads like this: (dose: 100.0 mg/kg/injection, schedule: Q01DX001 (ip), vehicle: saline sonified) 105 % of control; (dose: 200.0 mg/kg/injection, schedule: Q01DX001 (ip), vehicle: saline sonified) 110 % of control; (dose: 400.0 mg/kg/injection, schedule: Q01DX001 (ip), vehicle: saline sonified) 110 % of control.
In the case of `S=P(Nc1ccccc1)(Nc1ccccc1)c1ccccc1`, the T/C is 103 % of control (dose: 100.0 mg/kg/injection, schedule: Q01DX009 (ip), vehicle: Klucel (hydroxypropylcellulose) (HPC)); 106 % of control (dose: 200.0 mg/kg/injection, schedule: Q01DX009 (ip), vehicle: Klucel (hydroxypropylcellulose) (HPC)); 95 % of control (dose: 400.0 mg/kg/injection, schedule: Q01DX009 (ip), vehicle: Klucel (hydroxypropylcellulose) (HPC)).
On to `O=S1(=O)CCN(c2ccccc2)CC1`, for which the T/C is, setting by setting: under setting [7], 96 % of control; under setting [8], 98 % of control; under setting [9], 95 % of control.
`Clc1nc2nc[nH]c2nc1Cl`: the T/C reads like this: (dose: 11.0 mg/kg/injection, schedule: Q01DX009 (ip), vehicle: saline with Tween-80) 100 % of control; (dose: 16.5 mg/kg/injection, schedule: Q01DX009 (ip), vehicle: saline with Tween-80) 104 % of control; under setting [10], 100 % of control; (dose: 25.0 mg/kg/injection, schedule: Q04DX003 (ip), vehicle: saline with Tween-80) 91 % of control; (dose: 37.5 mg/kg/injection, schedule: Q01DX009 (ip), vehicle: saline with Tween-80) 100 % of control.
With `[Ag].[Ag].[NH-]S(=O)(=O)c1ccc(N=Nc2cc(N=Nc3ccc(S([NH-])(=O)=O)cc3)c3c(NC(=O)C(Cl)Cl)cccc3c2OC(=O)C(Cl)Cl)cc1.[c-]1nccs1.[c-]1nccs1`, the T/C is, setting by setting: (dose: 12.5 mg/kg/injection, schedule: Q01DX009 (ip), vehicle: saline with Tween-80) 91 % of control; under setting [10], 100 % of control; (dose: 50.0 mg/kg/injection, schedule: Q01DX009 (ip), vehicle: saline with Tween-80) 88 % of control and 93 % of control.
For the compound `O=C1CNCC(=O)N1`, the T/C is, setting by setting: (dose: 50.0 mg/kg/injection, schedule: Q01DX005 (ip), vehicle: saline) 110 % of control; (dose: 100.0 mg/kg/injection, schedule: Q01DX005 (ip), vehicle: saline) 99 % of control; (dose: 200.0 mg/kg/injection, schedule: Q01DX005 (ip), vehicle: saline) 100 % of control.
As for `O=C1C=C(N(CCCl)CCCl)C(=O)C=C1N(CCCl)CCCl`, the T/C is 101 % of control (dose: 50.0 mg/kg/injection, schedule: Q04DX003 (ip), vehicle: Klucel (hydroxypropylcellulose) (HPC)) and 178 % of control (dose: 200.0 mg/kg/injection, schedule: Q04DX003 (ip), vehicle: Klucel (hydroxypropylcellulose) (HPC)).
As to `CNC(=O)N(C)C/C=C/CN(C)C(=O)NC`, the T/C under setting [7] is 105 % of control, the T/C under setting [8] is 102 % of control and the T/C under setting [9] was 102 % of control.
Consider `O=[N+]([O-])c1ccc(NN=C(CO)CO)c([N+](=O)[O-])c1`, for which the T/C (dose: 50.0 mg/kg/injection, schedule: Q01DX009 (ip), vehicle: suspension in saline) was 98 % of control; the T/C (dose: 100.0 mg/kg/injection, schedule: Q01DX009 (ip), vehicle: suspension in saline) is 98 % of control; the T/C (dose: 200.0 mg/kg/injection, schedule: Q01DX009 (ip), vehicle: suspension in saline) was 97 % of control; the T/C (dose: 400.0 mg/kg/injection, schedule: Q01DX009 (ip), vehicle: suspension in saline) was 97 % of control.
Turning to `COc1ccc(C(O)C/[N+]([O-])=C/c2ncc([N+](=O)[O-])n2C)cc1` (stereo unspecified), the T/C is 97 % of control under setting [7], 100 % of control under setting [8] and 106 % of control under setting [9].
Regarding `CCOC(=O)/C(C#N)=C1/SC=C(N)N1c1ccccc1`, the T/C runs as follows: under setting [1], 98 % of control; under setting [2], 94 % of control; under setting [3], 91 % of control.
Turning to `NC(=S)c1ccccc1N=Cc1cccs1`, the T/C was 100 % of control (dose: 100.0 mg/kg/injection, schedule: Q01DX001 (ip), vehicle: saline); 102 % of control (dose: 200.0 mg/kg/injection, schedule: Q01DX001 (ip), vehicle: saline); 98 % of control (dose: 400.0 mg/kg/injection, schedule: Q01DX001 (ip), vehicle: saline).
